pIC50: −log10 of the molar value.

The first experiment deals with T1, yeast HSP90 (Saccharomyces cerevisiae, UniProt P02829).
T1 construct: made in house; host or cells: E. coli
T1 sequence (P02829 whole entry, looked up): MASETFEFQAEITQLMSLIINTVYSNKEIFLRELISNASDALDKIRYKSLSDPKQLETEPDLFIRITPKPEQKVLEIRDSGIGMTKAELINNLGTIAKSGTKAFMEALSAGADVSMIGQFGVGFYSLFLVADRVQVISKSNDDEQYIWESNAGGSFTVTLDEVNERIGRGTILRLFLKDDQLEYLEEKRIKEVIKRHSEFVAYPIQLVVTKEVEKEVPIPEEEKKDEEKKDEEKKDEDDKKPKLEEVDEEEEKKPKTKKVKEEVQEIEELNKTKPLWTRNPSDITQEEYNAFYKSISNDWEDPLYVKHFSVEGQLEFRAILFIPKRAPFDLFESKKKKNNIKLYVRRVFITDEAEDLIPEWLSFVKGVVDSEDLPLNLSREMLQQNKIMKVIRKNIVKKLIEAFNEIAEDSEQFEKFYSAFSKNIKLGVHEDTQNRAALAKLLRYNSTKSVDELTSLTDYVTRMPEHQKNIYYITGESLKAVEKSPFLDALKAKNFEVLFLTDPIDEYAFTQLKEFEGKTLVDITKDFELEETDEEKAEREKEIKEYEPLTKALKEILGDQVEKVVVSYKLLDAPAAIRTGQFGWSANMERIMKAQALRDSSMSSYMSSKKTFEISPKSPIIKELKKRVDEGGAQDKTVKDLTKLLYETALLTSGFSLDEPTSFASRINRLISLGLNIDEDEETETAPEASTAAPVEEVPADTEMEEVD
The experiment can be described thus: Malachite green HSP90 ATPase assay. In kind it is biochemical. Particulars: ATPase IC50, activity range, ATPase assay. The text has this: Two methods have been developed to measure the intrinsic ATPase activity of HSP90, using yeast HSP90 as a model system. The first method utilises a regenerating coupled enzyme assay. The second assay, based on the use of malachite green for the measurement of inorganic phosphate, was designed for high throughput screening (HTS) to identify novel HSP90 inhibitor drug candidates.
Colorimetric assays for the determination of phosphate, based on the formation of a phosphomolybdate complex, can be carried out in a few steps with inexpensive reagents and are well suited to the automation required for high throughput screening (see, e.g., Cogan et al., 1999). Enzymes that release inorganic phosphate are assayed using the reaction of the cationic dye, malachite green, with the a complex formed by a reaction of the inorganic phosphate with molybdate to generate a blue-green colour with an absorbance maximum at 610 nm (see, e.g., Baykov et al., 1988; Harder et al., 1994; Maehama et al., 2000). The method has been used in both high throughput (see, e.g., Rumsfeld et al., 2000) and ultra-high throughput screening formats (see, e.g., Layery et al., 2001) for a variety of non-HSP90 ATPases. However, this method is complicated by the non-enzymatic hydrolysis of ATP in the presence of acidic malachite green reagent, causing an increase in colour (see, e.g., Chan et al., 1986; Henkel et al., 1988). This process is mediated by molybdate and can be overcome by the addition of sodium citrate immediately after the reagent (see, e.g., Lanzetta et al., 1979; Schirmer et al., 1998; Baginski et al., 1975). This modification has been adapted to the 96-well microtitre plate assay previously described for other ATPases (see, e.g., Lanzetta et al., 1979) to produce the following protocol for HSP90 ATPase, which is suitable for high throughput screening.
Chemicals are of the highest purity commercially available and all aqueous solutions are made up in AR water. Because of the need to minimise contamination with inorganic phosphate, precautions should be taken with solutions and apparatus used in the assays. Glassware and pH meters are rinsed with double distilled or deionised water before use and, wherever possible, plastic ware should be used. Gloves are worn for all procedures. • (1) Immulon 96-well (Thermo Labsystems, Basingstoke, UK) or Cliniplate 384-well flat-bottomed polystyrene multiwell plates (Thermo Labsystems). • (2) Assay buffer of (a) 100 mM Tris-HCl, pH 7.4, (b) 20 mM KCl, (c) 6 mM MgCl2. Stored at 4° C. • (3) 0.0812% (w/v) malachite green (M 9636, Sigma Aldrich Ltd., Poole, UK). Stored at room temperature. • (4) 2.32% (w/v) polyvinyl alcohol USP (P 1097, Sigma Aldrich Ltd, Poole, UK) in boiling water (see Comment 1), allowed to cool, and stored at room temperature. • (5) 5.72% (w/v) ammonium molybdate in 6 M hydrochloric acid. Stored at room temperature. • (6) 34% (w/v) sodium citrate. Stored at room temperature. • (7) ATP, disodium salt, special quality (519979, Boehringer Mannheim, Lewes, UK). Stored at 4° C. • (8) E. coli expressed yeast HSP90 protein, purified >95% (see, e.g., Panaretou et al., 1998) and stored at −80° C. as 10 μl aliquots containing 0.5 mg of protein. Method
The following protocol was used: • (1) On the day of use, prepare the malachite green reagent from the stock solutions. Mix (a) 2 parts of malachite green, (b) 1 part of polyvinyl alcohol, (c) 1 part of ammonium molybdate, and (d) 2 parts of water. Initially, the reagent is a dark brown colour, but after standing at room temperature for about 2 h, this becomes a golden yellow colour and is ready for use. • (2) For the high throughput screening assays, the test compounds are dissolved at 200 μM in 2.0% DMSO and contained in daughter plates derived from the chemical libraries. Transfer 5 μl of each sample from the daughter plate to each well of the assay plate using automated equipment (see Comment 3). This represents a final concentration in the well of 40 μM.
On to `COc1ccc(-c2c(-c3cc(Cl)c(O)cc3O)n[nH]c2C(N)=O)cc1` [Example 172, 5-(5-Chloro-2,4-dihydroxy-phenyl)-4-(4-methoxy-phenyl)-2H-pyrazole-3-carboxylic acid amide], for which the pIC50 – broadly, −log10 of the IC50, conventionally taken in molar units – was greater than 4.30.

Regarding `COc1ccc(-c2c(-c3cc(Cl)c(O)cc3O)n[nH]c2C(=O)NC(C)C)cc1` [Example 170, 5-(5-Chloro-2,4-dihydroxy-phenyl)-4-(4-methoxy-phenyl)-2H-pyrazole-3-carboxylic acid isopropylamide], the pIC50 is greater than 4.30.

The experiment is the same for the next values; noted with them: Hsp90 IC50, activity class.
`Oc1cc(O)c(-c2n[nH]cc2-c2ccc3c(c2)OCCO3)cc1Cl` [Example 63] showed a pIC50 greater than 5.00.

Compound `Cc1[nH]nc(-c2ccc(O)cc2O)c1-c1ccc2c(c1)OCCO2` [Example 81] had a pIC50 of 4.00 to 5.00.

On to `COc1ccc(-c2c(-c3cc(Cl)c(O)cc3O)n[nH]c2C)cc1` [Example 64], for which the pIC50 was greater than 5.00.

Still in this experiment, the particulars now being: activity class; read-out: Hsp90 IC50.
Turning to `Cc1[nH]nc(-c2cc(F)ccc2O)c1-c1ccc2c(c1)OCCO2` [Example 108], the pIC50 is greater than 5.00.

Take `CCc1cc(-c2n[nH]cc2-c2ccc([N+](=O)[O-])cc2)c(O)cc1OC` [Example 80]: the negative logarithm of the IC50 (pIC50) is 4.00 to 5.00.

Turning to `COc1ccc(-c2c(-c3cc(Cc4ccccc4)c(O)cc3O)n[nH]c2C)cc1` [Example 104, 4-benzyl-6-[4-(4-methoxy-phenyl)-5-methyl-1H-pyrazol-3-yl]-benzene-1,3-diol], the pIC50 was greater than 5.00.

For `Cc1[nH]nc(-c2ccc(O)cc2O)c1-c1ccccc1` [Example 59], the pIC50 was less than 5.00.

In the case of `Cc1[nH]nc(-c2cc(Cl)ccc2O)c1-c1ccc2c(c1)OCCO2` [Example 107], the pIC50 is 4.00 to 5.00.

With `CCc1cc(-c2[nH]nc(CCC(=O)O)c2-c2nc3ccccc3n2C)c(O)cc1O` [Example 99], the pIC50 is 4.00 to 5.00.

`CCc1cc(-c2n[nH]c(C(F)(F)F)c2-c2ccccc2)c(O)cc1O` [Example 103]: the pIC50 was 4.00 to 5.00.

With `CCc1cc(-c2n[nH]cc2-c2ccc3c(c2)OCCO3)c(O)cc1O` [Example 83], the pIC50 is greater than 5.00.

As to `COc1ccc(-c2c[nH]nc2-c2ccc(O)cc2O)cc1OC` [Example 51], the pIC50 is 4.00 to 5.00.

Regarding `Oc1cc(O)c(-c2n[nH]cc2-c2cccc(Br)c2)cc1Cl` [Example 66], the pIC50 is greater than 5.00.

On to `N#CCCCCOc1cccc(-c2c[nH]nc2-c2cc(Cl)c(O)cc2O)c1` [Example 155], for which the pIC50 was greater than 5.00.

On to `Cc1ccc(O)c(-c2n[nH]c(C)c2-c2ccc3c(c2)OCCO3)c1` [Example 110], for which the pIC50 was less than 5.00.

Regarding `CCc1cc(-c2n[nH]cc2-c2ccc3c(c2)OCO3)c(O)cc1O` [Example 87], the pIC50 is greater than 5.00.

For the compound `CCOC(=O)c1ccc(-c2n[nH]c(C)c2-c2ccc3c(c2)OCCO3)cc1` [Example 114], the pIC50 is less than 5.00.

For `Oc1ccc(-c2n[nH]c(C(F)(F)F)c2-c2ccccc2Cl)c(O)c1` [Example 144], the pIC50 was less than 5.00.

Consider `Oc1cc(O)c(-c2n[nH]cc2-c2cccc(OCCF)c2)cc1Cl` [Example 67], for which the pIC50 is greater than 5.00.

For `COc1ccc(-c2c[nH]nc2-c2cc(Cl)c(O)cc2O)cc1OC` [Example 52], the negative-log IC50 (pIC50) was greater than 5.00.

For `CCc1cc(-c2n[nH]cc2-c2ccccc2)c(O)cc1OC` [Example 128], the pIC50 was less than 5.00.

On to `Cc1[nH]nc(-c2ccc(O)cc2O)c1-c1ccc2c(c1)OCCCO2` [Example 86], for which the negative logarithm of the IC50 (pIC50) was less than 5.00.

For `O=C(O)CCCOc1ccc(-c2c[nH]nc2-c2cc(Cl)c(O)cc2O)cc1` [Example 75], the pIC50 is greater than 5.00.

Regarding `CCc1cc(-c2n[nH]cc2-c2ccccc2)c(O)cc1O` [Example 54], the pIC50 was greater than 5.00.

`CCOC(=O)c1cccc(-c2n[nH]c(C)c2-c2ccc3c(c2)OCCO3)c1` [Example 116]: the pIC50 is less than 5.00.

As for `COc1ccc(-c2c(-c3ccc(O)c(C)c3O)n[nH]c2C)cc1` [Example 132], the pIC50 is less than 5.00.

In the case of `Cc1[nH]nc(-c2ccc3c(c2O)OCO3)c1-c1ccc2c(c1)OCCO2` [Example 121], the negative logarithm of the IC50 (pIC50) was less than 5.00.

Turning to `CCCc1cc(-c2n[nH]c(C)c2-c2ccc3c(c2)OCCO3)c(O)cc1O` [Example 88], the pIC50 is 4.00 to 5.00.

With `COc1ccc(-c2ccc(-c3c[nH]nc3-c3cc(Cl)c(O)cc3O)cc2)cc1OC` [Example 157], the pIC50 was greater than 5.00.

As to `Cc1[nH]nc(-c2cc(Cl)c(O)cc2O)c1-c1ccccc1` [Example 78], the pIC50 is greater than 5.00.

On to `Cc1n[nH]c(-c2cc(Cl)c(O)cc2O)c1-c1ccc(OCCCC#N)cc1` [Example 70], for which the pIC50 was greater than 5.00.

`Cc1ncc(-c2c(-c3ccc(O)cc3O)n[nH]c2C(F)(F)F)s1` [Example 143]: the pIC50 is less than 5.00.

Consider `CCc1cc(-c2n[nH]cc2-c2ncc(C)s2)c(O)cc1O` [Example 101], for which the pIC50 was 4.00 to 5.00.

For `Oc1cc(O)c(-c2n[nH]cc2-c2ccccc2Br)cc1Cl` [Example 60], the pIC50 is greater than 5.00.

Consider `Oc1cc(O)c(-c2n[nH]cc2-c2ccc(-c3ccc(F)cc3)cc2)cc1Cl` [Example 62], for which the pIC50 is greater than 5.00.

Take `N#CCCCOc1ccc(-c2cn[nH]c2-c2cc(Cl)c(O)cc2O)cc1` [Example 61]: the pIC50 was greater than 5.00.

As for `CCCc1cc(-c2[nH]ncc2-c2ccc(C(=O)OCC)o2)c(O)cc1O` [Example 97], the pIC50 is 4.00 to 5.00.

Staying with this experiment, now noted: activity range, ATPase assay; read-out: ATPase IC50.
`NC(=O)c1ccc(-c2c[nH]nc2-c2cc(Cl)c(O)cc2O)cc1` [Example 181]: the pIC50 was greater than 4.30.

In the case of `Cc1[nH]nc(-c2ccc(C(=O)NCC3CCCO3)cc2)c1-c1ccc2c(c1)OCCO2` (stereo not shown) [Example 159], the pIC50 is less than 4.30.

As for `COc1ccc(-c2c(C)n[nH]c2-c2cc(C(=O)NN)c(O)cc2O)cc1` [Example 178], the pIC50 is less than 4.30.

As for `OCCn1cc(-c2ccc(Br)cc2)c(-c2cc(Cl)c(O)cc2O)n1` [Example 166, 4-[4-(4-Bromo-phenyl)-1-(2-hydroxy-ethyl)-1H-pyrazol-3-yl]-6-chloro-benzene-1,3-diol], the pIC50 was less than 4.30.

With `Oc1cc(O)c(-c2n[nH]cc2-c2cncnc2)cc1Cl` [Example 177], the pIC50 is greater than 4.30.

Consider `Oc1cc(O)c(-c2n[nH]cc2-c2ccc3c(c2)CCO3)cc1Cl` [Example 173], for which the pIC50 is greater than 4.30.

Take `Cc1[nH]nc(-c2ccc(C(N)=O)cc2)c1-c1ccc2c(c1)OCCO2` [Example 158]: the negative-log IC50 (pIC50) is less than 4.30.

Turning to `Cc1c(-c2ccccc2)c(-c2cc(Cl)c(O)cc2O)nn1C` [Example 164, 4-Chloro-6-(1,5-dimethyl-4-phenyl-1H-pyrazol-3-yl)-benzene-1,3-diol], the pIC50 was less than 4.30.

As to `Oc1cc(O)c(-c2n[nH]cc2-c2ccsc2)cc1Cl` [Example 174], the negative-log IC50 (pIC50) is greater than 4.30.

For the compound `O=C(O)c1ccc(-c2c[nH]nc2-c2cc(Cl)c(O)cc2O)cc1` [Example 182], the pIC50 was greater than 4.30.

For `Cc1c(-c2ccc(Br)cc2)c(-c2cc(Cl)c(O)cc2O)nn1C` [Example 163], the pIC50 is less than 4.30.

For `Cn1cc(-c2ccc(Br)cc2)c(-c2cc(Cl)c(O)cc2O)n1` [Example 161, 4-[4-(4-Bromo-phenyl)-1-methyl-1H-pyrazol-3-yl]-6-chloro-benzene-1,3-diol], the pIC50 was less than 4.30.

Still in this experiment, the particulars now being: malachite green assay, 1 mM ATP; ±SD if n=3–5; read-out: HSP90 ATPase inhibition IC50.
`CCCc1cc(-c2n[nH]c(C)c2-c2ccc3c(c2)OCO3)c(O)cc1O` [CCT018158]: the pIC50 is 4.72.

Source of the values: US7247734B2 (Vernalis (Cambridge) Limited, priority 2001, dated 2007).
